# Measurements: patent US12129246B1, “Hydroquinazoline derivatives for the treatment of a disease or disorder” (Novartis AG, priority 2023, dated 2024)
# Where two headings read alike, the source gives them in different places.
# Assays:
# [1] = target: T1, human NPR1 (Homo sapiens, UniProt P16066); assay: Cellular cGMP production assay, human NPR1 expressing CHO-K1 cells (CisBio HTRF); format: cell-based; details: for AC50: cGMP production, 30 min at 37° C., 12-point dose-response from 30 μM; for Human NPR1 Amax (% of ANP): maximum cGMP production as percentage of the maximum cGMP produced with ANP
# T1 construct: host or cells: CHO-K1
# T1 sequence (P16066 33-1061): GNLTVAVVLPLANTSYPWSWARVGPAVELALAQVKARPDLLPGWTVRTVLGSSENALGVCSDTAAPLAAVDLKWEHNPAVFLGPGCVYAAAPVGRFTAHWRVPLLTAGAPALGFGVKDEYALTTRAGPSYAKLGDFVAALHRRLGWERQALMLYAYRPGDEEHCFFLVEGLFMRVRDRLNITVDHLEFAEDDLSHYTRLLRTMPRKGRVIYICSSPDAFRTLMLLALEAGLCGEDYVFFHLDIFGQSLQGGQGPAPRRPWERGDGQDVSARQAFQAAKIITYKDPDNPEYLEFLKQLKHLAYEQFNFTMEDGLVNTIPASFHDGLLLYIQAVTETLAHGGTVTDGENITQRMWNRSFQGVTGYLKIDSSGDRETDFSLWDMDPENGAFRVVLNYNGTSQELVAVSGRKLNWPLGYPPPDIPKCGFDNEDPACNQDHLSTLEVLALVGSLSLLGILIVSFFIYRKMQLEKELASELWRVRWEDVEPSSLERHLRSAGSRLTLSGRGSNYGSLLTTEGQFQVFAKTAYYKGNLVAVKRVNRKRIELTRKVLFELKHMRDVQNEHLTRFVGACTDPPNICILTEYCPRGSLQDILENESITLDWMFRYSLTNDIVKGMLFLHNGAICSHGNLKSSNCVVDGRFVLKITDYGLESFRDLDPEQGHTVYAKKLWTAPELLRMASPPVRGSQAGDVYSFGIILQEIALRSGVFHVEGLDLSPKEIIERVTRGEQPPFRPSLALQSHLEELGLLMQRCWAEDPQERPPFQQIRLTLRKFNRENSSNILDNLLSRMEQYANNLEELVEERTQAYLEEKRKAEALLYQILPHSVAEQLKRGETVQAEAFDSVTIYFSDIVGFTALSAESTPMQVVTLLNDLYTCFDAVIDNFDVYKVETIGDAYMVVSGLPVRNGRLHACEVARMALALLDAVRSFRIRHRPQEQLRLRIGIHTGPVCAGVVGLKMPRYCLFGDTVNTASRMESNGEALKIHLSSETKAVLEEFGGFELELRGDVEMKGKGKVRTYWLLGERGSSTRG
# In short: (§1)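 12-pt 3-fold dose-response, top 30 μM; buffer PBS + 0.1% BSA + 1 mM IBMX (PDE inhibitor); 30 min, 37 °C. Lyse, add cGMP-d2 + anti-cGMP-cryptate, 1 h RT. Ex 317 / em 665 nm; Delta F converted to cGMP via calibrator standard curve.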
# [2] = target: monkey NPR1 (Macaca fascicularis, UniProt A0A7N9DBT9); assay: Cellular cGMP production assay, monkey NPR1 expressing CHO-K1 cells (CisBio HTRF); format: cell-based; details: for Monkey NPR1 Amax (% of ANP): maximum cGMP production as percentage of the maximum cGMP produced with ANP
# In short: as §1
# [3] = cGMP production, monkey NPR1 CHO-K1 cells, 30 min at 37° C., 12-point dose-response from 30 μM, read-out: Monkey NPR1 AC50
# Sequence of monkey NPR1 (A0A7N9DBT9 entry or part of it): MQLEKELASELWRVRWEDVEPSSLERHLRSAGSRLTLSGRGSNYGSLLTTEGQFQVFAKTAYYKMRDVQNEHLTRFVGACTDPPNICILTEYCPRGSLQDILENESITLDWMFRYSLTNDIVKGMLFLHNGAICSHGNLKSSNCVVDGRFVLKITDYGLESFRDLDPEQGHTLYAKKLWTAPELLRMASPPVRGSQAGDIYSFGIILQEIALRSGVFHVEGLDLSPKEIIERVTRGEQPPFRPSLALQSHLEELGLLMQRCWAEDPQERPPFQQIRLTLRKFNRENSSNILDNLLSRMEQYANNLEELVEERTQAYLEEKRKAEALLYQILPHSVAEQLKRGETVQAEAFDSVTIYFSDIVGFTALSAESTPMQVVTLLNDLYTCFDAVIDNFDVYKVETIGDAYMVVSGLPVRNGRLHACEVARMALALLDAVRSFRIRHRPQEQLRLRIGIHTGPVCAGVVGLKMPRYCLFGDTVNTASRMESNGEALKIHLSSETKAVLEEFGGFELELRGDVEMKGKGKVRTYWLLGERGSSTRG
Compound,AC50 [1] [nM],Human NPR1 Amax (% of ANP) [1],AC50 [2] [nM],Monkey NPR1 Amax (% of ANP) ([2]; monkey NPR1 CHO-K1 cells),"AC50 [2, 3] [nM]"
"CC[C@@H](Nc1nc2c(c(N[C@@H](CN3C4CCCC3CCC4)c3cnn(C)c3)n1)C[C@H](c1ccccc1)CC2)[C@H]1CC[C@H](C(=O)O)CC1 [Compound 59, (1R,4r)-4-((R)-1-(((R)-4-(((R)-2-((1S,5S)-9-azabicyclo[3.3.1]nonan-9-yl)-1-(1-methyl-1H-pyrazol-4-yl)ethyl)amino)-6-phenyl-5,6,7,8-tetrahydroquinazolin-2-yl)amino)propyl)cyclohexane-1-carboxylic acid]",205,99.614 % of ANP,153,104.401 % of ANP,–
"CC[C@@H](Nc1nc2c(c(N[C@@H](CN3C4CCCC3CC4)c3cnn(C)c3)n1)C[C@H](c1ccccc1)CC2)[C@H]1CC[C@H](C(=O)O)CC1 [Compound 60, (1R,4r)-4-((1R)-1-(((6R)-4-(((1R)-2-(8-azabicyclo[3.2.1]octan-8-yl)-1-(1-methyl-1H-pyrazol-4-yl)ethyl)amino)-6-phenyl-5,6,7,8-tetrahydroquinazolin-2-yl)amino)propyl)cyclohexane-1-carboxylic acid]",205,93.233 % of ANP,99,106.189 % of ANP,–
"CC[C@@H](Nc1nc2c(c(N[C@@H](CN3C[C@H](C)C[C@H](C)C3)c3cnn(C)c3)n1)C[C@H](c1ccccc1)CC2)[C@H]1CC[C@H](C(=O)O)CC1 [Compound 61, (1R,4r)-4-((R)-1-(((R)-4-(((R)-2-((3S,5R)-3,5-dimethylpiperidin-1-yl)-1-(1-methyl-1H-pyrazol-4-yl)ethyl)amino)-6-phenyl-5,6,7,8-tetrahydroquinazolin-2-yl)amino)propyl)cyclohexane-1-carboxylic acid]",207,104.236 % of ANP,–,102.127 % of ANP,122
"CC[C@H]([C@H]1CC[C@H](C(=O)O)CC1)N(C)c1nc2c(c(N[C@@H](CN3C4CCCC3CC4)c3cnn(C)c3)n1)C[C@H](c1ccccc1F)CC2 [Compound 62, (1R,4r)-4-((1R)-1-(((6R)-4-(((1R)-2-(8-azabicyclo[3.2.1]octan-8-yl)-1-(1-methyl-1H-pyrazol-4-yl)ethyl)amino)-6-(2-fluorophenyl)-5,6,7,8-tetrahydroquinazolin-2-yl)(methyl)amino)propyl)cyclohexane-1-carboxylic acid]",207,94.244 % of ANP,133,103.497 % of ANP,–
"CC[C@H]([C@H]1CC[C@H](C(=O)O)CC1)N(C)c1nc2c(c(N[C@@H](CN3C4CCC3CC4)c3cnn(C)c3)n1)C[C@H](c1ccc(F)cc1)CC2 [Compound 63, (1R,4r)-4-((R)-1-(((R)-4-(((R)-2-(7-azabicyclo[2.2.1]heptan-7-yl)-1-(1-methyl-1H-pyrazol-4-yl)ethyl)amino)-6-(4-fluorophenyl)-5,6,7,8-tetrahydroquinazolin-2-yl)(methyl)amino)propyl)cyclohexane-1-carboxylic acid]",210,100.629 % of ANP,196,99.684 % of ANP,–
"CC[C@@H](Nc1nc2c(c(N[C@@H](CN3CCCC[C@H]3C)c3cnn(CC)c3)n1)C[C@H](c1ccccc1)CC2)[C@H]1CC[C@H](C(=O)O)CC1 [Compound 64, (1R,4r)-4-((R)-1-(((R)-4-(((R)-1-(1-ethyl-1H-pyrazol-4-yl)-2-((R)-2-methylpiperidin-1-yl)ethyl)amino)-6-phenyl-5,6,7,8-tetrahydroquinazolin-2-yl)amino)propyl)cyclohexane-1-carboxylic acid]",213,93.045 % of ANP,–,92.911 % of ANP,175
